Assay results from a melting point compilation (Tetko et al.; mined from patent text by program, amines drawn as free bases though some values may be those of a salt).

Row | SMILES | melting point [°C]
1 | CC(=O)c1cc(S(=O)(=O)N(C)C)ccc1O | 115 to 116
2 | NS(=O)(=O)c1cc2cc(CCBr)ccc2s1 | 118 to 120
3 | COc1ccc(C(=NO)c2cc(F)ccc2F)c(O)c1Cl | 209 to 210
4 | COc1cc2[nH]c(N(C)Cc3cccc(C4CCN(C)CC4)c3)nc(=O)c2c(C)c1OC | 156 to 158
5 | CCOC(=O)C1C=Nc2c(ccc3ncccc23)N1O (stereo not given) | 223 to 225
6 | CC(n1cnc2cc(-c3ccc(F)cc3)sc2c1=O)C(O)(Cn1cncn1)c1ccc(F)cc1F (stereo not given) | 118 to 127
7 | CCCCc1ccc(OC)c(-c2csc(NC(=O)c3ccc(C(=O)N4CCC(N5CCC[C@H]5CO)CC4)cc3)n2)c1 | 199
8 | COc1ccnc(C(=O)N[C@H]2COC(=O)[C@H](CC(=O)OC(C)(C)C)[C@@H](OC(=O)C(C)C)[C@H](C)OC2=O)c1O | 192 to 194
9 | CCOC(=O)c1cc(-c2ccc(OCCO[Si](C)(C)C(C)(C)C)cc2)n(-c2ccc(OC)cc2)n1 | 86 to 87
10 | O=C(O)c1cc(OCC(F)(F)F)ccc1OCC(F)(F)F | 99 to 101
11 | COC(=O)[C@H](C)NC(=O)C(=O)Nc1ccccc1C(C)(C)C | 60.1 to 62.1
12 | CC(C)Cc1c(C(=O)OC(C)(C)C)c(C(F)F)nc(C(F)(F)F)c1C(=O)OC(C)(C)C | 48 to 50
13 | COCCNC(=O)c1cnc(C(=O)O)c(OC)c1 | 160 to 161
14 | O=C1CSc2ccc(CO)nc2N1 | 120 to 135
15 | CC[C@@H]1CN(c2c(F)c(N)c3c(=O)c(C(=O)O)cn(C4CC4)c3c2F)C[C@H]1N (relative stereo) | 195 to 196
16 | CCCN1CCCN(c2c(N3CCCN(CCC)CC3)c(=O)c2=O)CC1 | 90 to 92
17 | O=C(O)/C=C/c1ccc(-c2nc3c(=O)n(CCC4CCCCCC4)c(=O)n(CCC4CCCCCC4)c3[nH]2)cc1 | > 250
18 | Cc1ccc(NC(=O)c2nc(C)cc(C#N)c2C)nc1 | 212
19 | CCCC1(CC(=O)O)OCC(=O)c2c1[nH]c1ccccc21 (stereo not given) | 206 to 208
20 | CCCCCCCCOc1cc2c(cc1/C(C)=C/c1ccc(C(=O)OC)cc1)C(C)(C)CCCS2(=O)=O | 79 to 80
21 | [N-]=[N+]=N[C@H](C(=O)O)C12CC3CC(CC(C3)C1)C2 | 110 to 112
22 | CC(c1ncncc1Cl)C(O)(Cn1cncn1)c1ccc(F)cc1F (stereo not given) | 128
23 | N#Cc1ccc(N(CCCCOc2ccc(OS(N)(=O)=O)cc2)n2cnnc2)cc1 | 164 to 172

Row | SMILES | melting point [°C]
24 | COCCNc1c(S(=O)(=O)C(F)(F)F)c(C#N)nn1-c1c(Cl)cc(C(F)(F)F)cc1Cl | 164
25 | COc1cc(N2CCC(N3CCN(C)CC3)CC2)ccc1Nc1ncc2ccc(Br)n2n1 | 171 to 173
26 | CC12CCC3c4ccc(O)cc4CC(Sc4ccc(C=CC(=O)O)cc4)C3C1CCC2O (stereo not given) | 215 to 220
27 | O=Cc1cc2n(c1)Cc1ccccc1-n1ccnc1-2 | 203 to 205
28 | N#Cc1ncn2c(-c3cccc(C(F)(F)F)c3)ccnc12 | 168 to 169
29 | CC(CN1CCCCC1)Nc1ccnc2cc(Cl)ccc12 (racemic) | 168 to 171
30 | COc1ccc(O)c2c1C(C)(C)CCC2(C)C | 127
31 | N#Cc1c(-c2ccc(Cl)c(Cl)c2)[nH]c(I)c1I | > 230
32 | Cc1ccc(C(=O)N2CCCC(c3ccc(Cl)cc3)=N2)cc1 | 163 to 166
33 | CCC(C)(C)c1cc(-c2cccc(C=C3SC(N4CCCC4)=NC3=O)c2)ccc1O | 282 to 283
34 | CS(=O)(=O)N1CCCn2c(nc3c(N)nc4cc(-c5cccnc5)ccc4c32)C1 | 302
35 | N#Cc1cccnc1N1CCN(CC(=O)Nc2ccc(F)cc2)CC1 | 98 to 100
36 | CSc1nc(N)nc(N)c1-c1ccc(Cl)cc1Cl | 191 to 192
37 | CCN(C)c1nn(C)c2ncc(-c3ccncc3)cc12 | 182 to 197
38 | O=C(O)c1c(Cc2cc3c(cc2Cl)OCO3)c(-c2cccs2)nn1CC1CCCC(C(=O)O)C1 (stereo not given) | > 260
39 | CCCc1c(C(=O)C(C)C)c2ccc(C(N)=O)cc2n1Cc1ccc(Br)cc1Cl | 199 to 201
40 | CC1(C)C(C#N)C1(C)C | 17
41 | COc1ccc(-c2cc(C(F)F)nn2-c2ccc(S(N)(=O)=O)cc2)cc1F | 159 to 161
42 | Fc1cc(-c2ccc3nnn(Cc4ccc5ncccc5c4)c3n2)ccc1OCC1CC1 | 160 to 162
43 | COC(=O)c1cc(Cl)c(NC(C)=O)cc1OC(C)=O | 134 to 136
44 | CCCCCCCCc1c(N)nc(S(C)(=O)=O)nc1CC | 90 to 92
45 | CC1CC2C(=C(Cl)C=CC2(F)n2[nH]c3c(c2=O)CCCC3)O1 (stereo not given) | 240 to 242
46 | CCOC(=O)c1nccn1C1Cc2ccccc2C1=O (stereo not given) | 116

Results, then the compound that gave them:

Row | melting point [°C] | SMILES
47 | 137 to 138 | COCCOCCOCCOc1cc(OC)c(-c2cccs2)cc1/C=C/C(=O)c1ccc(C(=O)O)cc1
48 | 140 to 145 | CCO[C@@H](Cc1ccc(OCCc2nc(-c3ccc(-c4ccccc4)cc3)oc2C)c2ccccc12)C(=O)O
49 | 190 to 193 | Cc1oc2ccccc2c1C(=O)N(Cc1ccccc1)Cc1ccc2cc(O)ccc2c1
50 | 78 to 80 | COC(=O)C(C)(C)OCC#Cc1cc(Cl)ccc1NS(=O)(=O)c1cc(C)cc(C)c1
51 | 135 to 137 | O=C(O)CCCN(C(=O)c1ccc(Cl)cc1)c1ccccc1-c1ccccc1
52 | 144 to 146 | O=C1C(Cl)=C(c2ccccc2)C(=O)N1Nc1ccccc1
53 | 194 | CC(C#N)(Cn1c(C(F)(F)F)nc2ccccc21)NC(=O)c1ccc(OC(F)(F)F)cc1 (stereo not given)
54 | 64 to 65 | N[C@@H](Cc1ccc(C(F)(F)F)cc1)[C@H](O)c1ccccc1 (racemic)
55 | 84.5 to 85.5 | COC(=O)c1cccc(-c2cccc(CC(=O)O)c2)c1
56 | > 270 | O=C(O)Cn1cc(-c2ccc3nnn(Cc4ccc5ncccc5c4)c3n2)cn1
57 | 174 | CCc1nc2cc(COC)c(Cl)cc2n1-c1ccc(CCOC(=O)NS(=O)(=O)c2ccc(C)cc2)cc1
58 | 183 to 185 | CCOC(=O)C(Cc1ccc(-c2ccc([N+](=O)[O-])cc2)o1)(NC(C)=O)C(=O)OCC
59 | 65 to 66 | CCOC(=O)c1ccc(N(Cc2ccc(Cl)cc2)C(C)=O)cc1
60 | 208 | COc1cc(C)c2c(c1)-c1c([nH]c3ccccc13)C2
61 | 196 to 197 | O=C(Nc1ccc(F)cc1F)Nc1oc(=O)c2ccc(Cl)cc2c1-c1ccccc1
62 | 227 to 229 | O=C(O)C1=Cc2cc(-c3ccc4c(c3)OCO4)ccc2SCC1
63 | 152 to 155 | CN(c1ccc([N+](=O)[O-])cc1C(F)(F)F)c1c(Cl)c(Cl)nc(Cl)c1Cl
64 | 107 | OC1(c2ccccc2)CCN(CCC2Cc3ccccc3O2)CC1 (stereo not given)
65 | 128 | COc1c(Cl)cc(CNc2ccccc2[N+](=O)[O-])cc1Cl
66 | 108 | Cc1cc(C(=O)N2Cc3ccc(C(=O)N4CCN(C)CC4)n3Cc3ccccc32)ccc1C1=CCCc2ccccc21
67 | 157 to 158 | COc1cc(COc2cc(CCC(=O)O)n(-c3ccccc3)n2)ccc1OCc1nc(-c2ccccc2)oc1C
68 | 187 to 189 | COC1C(OC(=O)c2ccccc2)C(COC(=O)c2ccccc2)OC1n1cc([N+](=O)[O-])c(=O)[nH]c1=O (stereo not given)
69 | 122 to 125 | NCc1ccc(-c2ccc(N(Cc3ccccc3)Cc3ccccc3)cc2)cc1
70 | 135 to 137 | O=C(Cc1cccc(Oc2ccccc2)c1)Nc1cc(Cl)c(Cl)cc1[N+](=O)[O-]
71 | 156 to 158 | Cc1c(-c2ccnc(-c3ccc4c(n3)CCCC4)n2)ccc2ccccc12

Row | melting point [°C] | SMILES
72 | 139 | COC(=O)COc1ccccc1Oc1cc(NC(C)=O)c(F)cc1Cl
73 | 172 to 173 | Cc1c(NC(=O)c2ccc(-c3ccc(F)cc3F)cc2F)ccc2cc(CN3CCCC3)cnc12
74 | 88 to 105 | COc1cc2c(cc1Nc1ncc(Cl)c(Nc3ccccc3S(=O)(=O)C(C)C)n1)CCN(CC(=O)N1CCCC1)CC2
75 | 120 to 123 | CCOC(=O)c1cc2ccnc(N(Cc3ccccc3)Cc3ccccc3)c2[nH]1
76 | 104 to 105 | N#Cc1ccc(OCc2cccc(F)c2)cc1
77 | 182 to 183 | O=C(C=Cc1ccccc1)C(Cc1ccccc1)(Cc1ccccc1)C(=O)C=Cc1ccccc1
78 | 74 to 78 | CC12CCC3c4ccc(OCc5ccccc5)cc4CCC3C1CCC2OCc1ccccc1 (stereo not given)
79 | 125 to 126 | Clc1cccc(-c2ncoc2-c2ccncc2)c1
80 | 54.9 to 55.8 | COc1cccc(OC)c1C=CC(=O)c1ccccc1
81 | 284 to 286 | O=C(O)c1cn(-c2cccc(F)c2)c2cc(Cl)ccc2c1=O
82 | 94 to 95 | O=C(OC1CCCCC1=O)c1cccc2ccccc12 (stereo not given)
83 | 129 to 132 | COc1ccc(/C=C(/C(=O)OC(C)(C)C)C(=O)c2ccccc2O)cc1
84 | 211 to 212 | Cc1cc(C)c(S(=O)(=O)NC(COc2ccnc3ccccc23)C(F)(F)F)c(C)c1 (stereo not given)
85 | 140 | CC(C)(C)OC(=O)CN(C(=O)CN1C(=O)c2ccccc2C1=O)c1ccccc1F
86 | > 320 | O=C(Nc1cc2[nH]c(=O)c(=O)[nH]c2cc1[N+](=O)[O-])C(F)(F)F
87 | 92 to 95 | Cc1[nH]nc(Oc2ccc(C(F)(F)F)cc2[N+](=O)[O-])c1C
88 | 88.5 to 89 | CCOC(=O)CCc1ccc(OCC(=O)N(CC)CC)cc1Oc1ncc(C(F)(F)F)cc1Cl
89 | 88 | CCOC(=O)c1c(-c2ccc(C)cc2)nc2ccccn12
90 | 210 to 212 | CC1(C)C=C(c2ccccc2)c2cccc3c2N1C(=O)C3=O
91 | 184 to 186 | O=C(c1ccccc1)c1ccc(OCc2nnn[nH]2)c(Cl)c1Cl
92 | 210 to 211 | Cn1cc(Cc2cc3cccc(-c4cccc(C(=O)NCCO)c4)c3s2)cc(Cl)c1=O
93 | 80 | Nc1nc(-c2cn([C@H](CO)CCc3ccccc3)cn2)n[nH]1
94 | 188 | CCc1ccc(-c2ccc(C(=O)Nc3cc4ncc(CN5CCCC5)cc4cc3C)cc2)cc1
95 | 104 to 106 | CN1CCN(c2ccccc2C=C2CCN(c3ccccc3)C2=O)CC1
